Data published in patent US4001409A, “Injectable formulations of 7-[D-α-amino-α-(p-hydroxyphenyl)acetamido]-3-(1,2,3-triazol- 5-ylthiomethyl)-3-cephem-4-carboxylic acid” (priority 1975, dated 1977).
In brackets after ≈: the same amount, converted by molar mass. Several values for one entry are separate records, joined by “and”; a condition that tells them apart may be missing. Equal entries are not always repeated. Structures can show the parent of a compound that is named as a salt. Where two headings read alike, the source gives them in different places.

Assays:
Str. pyogenes A9604 = test: Minimum Inhibitory Concentration, tube dilution; type: cell-based; details: Streptococcus pyogenes
Source text: *50% Nutrient Broth - 45% Antibiotic Assay Broth

S. aureus Smith A9537 = test: Minimum Inhibitory Concentration, tube dilution; type: cell-based; details: Staphylococcus aureus, at 10^-^4 dilution, overnight, 37° C.
S. aureus BX1633-2 A9606 = test: Minimum Inhibitory Concentration, tube dilution; type: cell-based; details: Staphylococcus aureus
[1] = test system: S. aureus meth.-resist. A15097; test: Minimum Inhibitory Concentration, tube dilution; type: cell-based; details: Staphylococcus aureus
Sal. enteritidis A9531 = test: Minimum Inhibitory Concentration, tube dilution; type: cell-based; details: Salmonella enterica
E. coli A9675 = test: Minimum Inhibitory Concentration, tube dilution; type: cell-based; details: Escherichia coli
D. pneumoniae A9585 = test: Minimum Inhibitory Concentration, tube dilution; details: Streptococcus pneumoniae
E. coli Juhl A15119 = test: Minimum Inhibitory Concentration, tube dilution; details: Escherichia coli, JUHLA15119
K. pneumoniae A9977 = test: Minimum Inhibitory Concentration, tube dilution; details: Klebsiella pneumoniae
K. pneumoniae A15130 = test: Minimum Inhibitory Concentration, tube dilution; details: Klebsiella pneumoniae
Pr. mirabilis A9900 = test: Minimum Inhibitory Concentration, tube dilution; details: Proteus mirabilis
Ser. marcescens A20019 = test: Minimum Inhibitory Concentration, tube dilution; details: Serratia marcescens
Ent. cloacae A9656 = test: Minimum Inhibitory Concentration, tube dilution; details: Enterobacter cloacae
Ent. cloacae A9657 = test: Minimum Inhibitory Concentration, tube dilution; details: Enterobacter cloacae
Ent. cloacae A9659 = test: Minimum Inhibitory Concentration, tube dilution; details: Enterobacter cloacae
[2] = known forms; cannot be administered intravenously; cited from earlier work
Ps. aeruginosa A9843A = test: microbe, parasite or virus in culture; details: Pseudomonas aeruginosa
[3] = Blood levels in mice after oral administration; details: mouse, 100 mg/kg
Pr. morganii A15153 = test: Minimum Inhibitory Concentration, tube dilution; details: Morganella morganii
[4] = Blood levels in mice after intramuscular administration; details: mouse, im, 10 mg/kg
Heat stability of solids = type: physicochemical; details: for Stability (loss): 1 month at 56° C., 43800 min; for Heat stability (loss): Procedure D
vein and muscle = details: in vivo
[5] = Stability of aqueous solutions; type: physicochemical; details: alkaline pH, i.e. pH~7.0 or higher
Source text: A. Stability of Aqueous Solutions of Amorphous
Monohydrate and Sodium Levulinate Mixture at […]

[6] = test system: Gram-positive and Gram-negative organisms; details: oral and parenteral; cited from earlier work
pH of solution = type: physicochemical
physchem = details: water
[7] = Solubility in water / concentration of true solutions
[8] = +5% serum, 50% Nutrient Broth - 45% Antibiotic Assay Broth, overnight, 37° C., read-out: M.I.C.
[9] = BX16332A9606, at 10^-^2 dil'n, overnight, 37° C.
[10] = at 10^-^4 dilution, overnight, 37° C., read-out: M.I.C.

## CC1=C(C(=O)O)N2C(=O)[C@@H](NC(=O)[C@H](N)c3ccccc3)[C@H]2SC1 [Cephalexin]
Str. pyogenes A9604
  MIC: 0.5 µg/mL (≈ 1.44 µM)
S. aureus Smith A9537; SMITHA9537, +50% serum, read-out: M.I.C.
  MIC: 2 µg/mL (≈ 5.76 µM)
S. aureus Smith A9537; SMITHA9537, read-out: M.I.C.
  MIC: 1 µg/mL (≈ 2.88 µM)
S. aureus BX1633-2 A9606; BX16332A9606, at 10^-^3 dil'n, overnight, 37° C., read-out: M.I.C.
  MIC: 2 µg/mL (≈ 5.76 µM)
[1]; at 10^-^3 dil'n, 37° C
  MIC: 16 µg/mL (≈ 46.1 µM)
[1]; at 10^-^3 dil'n, 28° C, read-out: M.I.C.
  MIC: 32 µg/mL (≈ 92.1 µM)
Sal. enteritidis A9531
  MIC: 4 µg/mL (≈ 11.5 µM)
E. coli A9675
  MIC: 16 µg/mL (≈ 46.1 µM)
D. pneumoniae A9585
  MIC: 1 µg/mL (≈ 2.88 µM)
E. coli Juhl A15119
  MIC: 8 µg/mL (≈ 23 µM)
K. pneumoniae A9977
  MIC: 4 µg/mL (≈ 11.5 µM)
K. pneumoniae A15130
  MIC: 8 µg/mL (≈ 23 µM)
Pr. mirabilis A9900
  MIC: 4 µg/mL (≈ 11.5 µM)
Ser. marcescens A20019
  MIC: > 125 µg/mL
Ent. cloacae A9656
  MIC: > 125 µg/mL
Ent. cloacae A9657
  MIC: 4 µg/mL (≈ 11.5 µM)
Ent. cloacae A9659
  MIC: > 125 µg/mL

## N[C@@H](C(=O)NC1C(=O)N2C(C(=O)O)=C(CSc3cnn[nH]3)CSC12)c1ccc(O)cc1 (stereo partly drawn) [Cephalosporin 1,2-propylene glycolate, 7-[D-α-amino-α-(p-hydroxyphenyl)acetamido]-3-(1,2,3-triazol-5-ylthiomethyl)-3-cephem-4-carboxylic acid 1,2-propylene glycolate]
Bio-assay
  Bio-assay: 880-890 units/mg.
Str. pyogenes A9604; [8]
  MIC: 0.03 µg/mL (≈ 0.0649 µM)
S. aureus Smith A9537; SMITHA9537, +50% serum
  MIC: 2 µg/mL (≈ 4.32 µM)
S. aureus Smith A9537; SMITHA9537, read-out: M.I.C.
  MIC: 0.25 µg/mL (≈ 0.541 µM)
S. aureus BX1633-2 A9606; [9]
  MIC: 2 µg/mL (≈ 4.32 µM)
S. aureus BX1633-2 A9606; BX16332A9606, at 10^-^3 dil'n, overnight, 37° C.
  MIC: 0.5 µg/mL (≈ 1.08 µM)
Sal. enteritidis A9531
  MIC: 0.5 µg/mL (≈ 1.08 µM)
E. coli A9675; [10]
  MIC: 4 µg/mL (≈ 8.65 µM)
[2]
  solubility in water: relatively low solubility in water
Ps. aeruginosa A9843A
  MIC: > 125 µg/mL
[3]
  concentration at 1 h: 44700 ng/mL
  concentration at 2 h: 26600 ng/mL
  concentration at 3.5 h: 9700 ng/mL
  concentration at 9.5 h: 45800 ng/mL
D. pneumoniae A9585
  MIC: 0.13 µg/mL (≈ 0.281 µM)
E. coli Juhl A15119
  MIC: 1 µg/mL (≈ 2.16 µM)
K. pneumoniae A9977
  MIC: 1 µg/mL (≈ 2.16 µM)
K. pneumoniae A15130
  MIC: 2 µg/mL (≈ 4.32 µM)
Pr. mirabilis A9900
  MIC: 0.5 µg/mL (≈ 1.08 µM)
Pr. morganii A15153
  MIC: 32 µg/mL (≈ 69.2 µM)
Ser. marcescens A20019
  MIC: > 125 µg/mL
Ent. cloacae A9656
  MIC: > 125 µg/mL
Ent. cloacae A9657
  MIC: 1 µg/mL (≈ 2.16 µM)
Ent. cloacae A9659
  MIC: 32 µg/mL (≈ 69.2 µM)
[4]
  concentration at 0.5 h: 17400 ng/mL
  concentration at 1 h: 12300 ng/mL
  concentration at 1.5 h: 9000 ng/mL

## CC(=O)OCC1=C(C(=O)O)N2C(=O)[C@@H](NC(=O)Cc3cccs3)[C@H]2SC1 [Cephalothin]
Str. pyogenes A9604; [8]
  MIC: 0.06 µg/mL (≈ 0.151 µM)
S. aureus Smith A9537; SMITHA9537, +50% serum
  MIC: 0.5 µg/mL (≈ 1.26 µM)
S. aureus BX1633-2 A9606; BX16332A9606
  MIC: 0.25 µg/mL (≈ 0.631 µM)
S. aureus BX1633-2 A9606; [9]
  MIC: 0.25 µg/mL (≈ 0.631 µM)
[1]
  MIC: 4 µg/mL (≈ 10.1 µM)
[1]; at 10^-^3 dil'n, 37° C
  MIC: 1 µg/mL (≈ 2.52 µM)
Sal. enteritidis A9531; [10]
  MIC: 0.06 µg/mL (≈ 0.151 µM)
E. coli A9675
  MIC: 32 µg/mL (≈ 80.7 µM)
Ps. aeruginosa A9843A
  MIC: > 125 µg/mL
E. coli Juhl A15119
  MIC: 8 µg/mL (≈ 20.2 µM)
K. pneumoniae A9977
  MIC: 2 µg/mL (≈ 5.04 µM)
K. pneumoniae A15130
  MIC: 16 µg/mL (≈ 40.4 µM)
Pr. mirabilis A9900
  MIC: 1 µg/mL (≈ 2.52 µM)
Pr. morganii A15153
  MIC: > 125 µg/mL
Ser. marcescens A20019
  MIC: > 125 µg/mL
Ent. cloacae A9656
  MIC: > 125 µg/mL
Ent. cloacae A9657
  MIC: 2 µg/mL (≈ 5.04 µM)
Ent. cloacae A9659
  MIC: > 125 µg/mL

## N[C@@H](C(=O)NC1C(=O)N2C(C(=O)O)=C(CSc3cnn[nH]3)CSC12)c1ccc(O)cc1 (stereo partly drawn) [amorphous mono-hydrochloride, 7[D-α-amino-α-(p-hydroxyphenyl)acetamido]-3-(1,2,3-triazol-5-ylthiomethyl)-3-cephem-4-carboxylic acid amorphous mono-hydrochloride]
Heat stability of solids; Procedure Da
  Stability (loss): Less than 10%
Heat stability of solids; Procedure Db
  Stability (loss): Less than 10%
Heat stability of solids; 56° C., 4 weeks, 40320 min
  Heat stability (loss): 1-6%
Heat stability of solids; 100° C., 24 hours
  Heat stability (loss): 7-14%
Heat stability of solids; 100° C., 48 hours
  Heat stability (loss): 10-15%
Bio-assay; mono-hydrochloride
  Bio-assay: 900 µg/mg and 820 to 850 µg/mg
Vein and muscle
  venous irritation and muscle damage: significant venous irritation and muscle damage

## N[C@@H](C(=O)NC1C(=O)N2C(C(=O)O)=C(CSc3cnn[nH]3)CSC12)c1ccc(O)cc1 (stereo partly drawn) [amorphous monohydrate, 7-[D-α-amino-α-(p-hydroxyphenyl)acetamido]-3-(1,2,3-triazol-5-ylthiomethyl)-3-cephem-4-carboxylic acid amorphous monohydrate]
Bio-assay; monohydrate
  Bio-assay: 900-935 units/mg.

## N[C@@H](C(=O)NC1C(=O)N2C(C(=O)O)=C(CSc3cnn[nH]3)CS[C@H]12)c1ccc(O)cc1 (stereo partly drawn) [compound I, 7-[D-α-amino-α-(p-hydroxyphenyl)acetamido]-3-(1,2,3-triazol-5-ylthiomethyl)-3-cephem-4-carboxylic acid]
[5]
  splitting off of the triazole moiety at the 3-position: found to split off rapidly at alkaline pH
[2]
  solubility in water: relatively low solubility in water
[6]
  therapeutic effectiveness against infections: therapeutically effective against infections caused by both Gram-positive and Gram-negative organisms

## CC(=O)CCC(=O)[O-].[Na+] [sodium levulinate]
pH of solution
  pH: 6.5-8.0
physchem
  solubility: > 300 mg/mL

## CC(=O)C(=O)[O-].[Na+] [sodium pyruvate]
pH of solution
  pH: 6.5-8.0
[7]
  solubility: > 500 mg/mL
